Common to all, as to design: scale not given: the % may be the effect or the level left
In experiment [1] the target is T1, Mitogen-activated protein kinase kinase kinase 6 (Homo sapiens) (UniProt O95382).
T1 sequence (whole entry): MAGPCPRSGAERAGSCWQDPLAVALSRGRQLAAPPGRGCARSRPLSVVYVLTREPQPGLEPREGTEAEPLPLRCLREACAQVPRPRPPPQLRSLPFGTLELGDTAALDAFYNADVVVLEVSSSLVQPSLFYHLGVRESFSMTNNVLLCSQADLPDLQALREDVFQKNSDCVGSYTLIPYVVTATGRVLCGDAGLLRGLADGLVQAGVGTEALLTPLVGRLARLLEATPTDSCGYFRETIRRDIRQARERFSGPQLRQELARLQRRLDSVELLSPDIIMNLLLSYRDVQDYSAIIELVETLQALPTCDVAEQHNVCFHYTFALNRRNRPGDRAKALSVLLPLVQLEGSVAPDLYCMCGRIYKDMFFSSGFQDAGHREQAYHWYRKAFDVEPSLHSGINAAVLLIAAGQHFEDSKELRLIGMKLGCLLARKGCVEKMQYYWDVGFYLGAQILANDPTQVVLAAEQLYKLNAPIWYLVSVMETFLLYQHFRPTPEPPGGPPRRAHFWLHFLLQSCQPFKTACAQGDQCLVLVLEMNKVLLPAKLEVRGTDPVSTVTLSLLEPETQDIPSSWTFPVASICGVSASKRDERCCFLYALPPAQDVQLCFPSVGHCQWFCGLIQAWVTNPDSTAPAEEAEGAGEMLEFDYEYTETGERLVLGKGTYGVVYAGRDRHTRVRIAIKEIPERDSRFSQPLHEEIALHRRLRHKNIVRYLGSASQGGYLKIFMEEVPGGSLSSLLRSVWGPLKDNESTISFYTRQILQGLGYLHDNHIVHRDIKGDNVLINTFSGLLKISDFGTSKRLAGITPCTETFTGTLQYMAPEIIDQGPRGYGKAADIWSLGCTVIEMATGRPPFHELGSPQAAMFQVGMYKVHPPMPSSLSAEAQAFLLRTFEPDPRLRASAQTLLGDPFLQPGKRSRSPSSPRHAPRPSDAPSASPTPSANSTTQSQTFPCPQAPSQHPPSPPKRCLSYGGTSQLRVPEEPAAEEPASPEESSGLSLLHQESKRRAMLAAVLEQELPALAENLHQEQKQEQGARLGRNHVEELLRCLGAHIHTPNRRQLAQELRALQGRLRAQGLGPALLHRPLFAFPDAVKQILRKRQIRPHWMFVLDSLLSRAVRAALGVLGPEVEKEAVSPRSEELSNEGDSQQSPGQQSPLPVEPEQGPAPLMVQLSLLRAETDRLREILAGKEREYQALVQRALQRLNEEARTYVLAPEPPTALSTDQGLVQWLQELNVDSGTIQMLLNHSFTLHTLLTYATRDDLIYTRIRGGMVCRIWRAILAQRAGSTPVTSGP
The experiment can be described thus: Inhibition of human MEKK6 assessed as enzyme activity at 1 uM using myelin basic protein as substrate preincubated for 20 mins followed by [gamma-33P]-ATP addition and measured after 120 mins by radiometric Hot-SpotSM Kinase assay relative to control.

Experiment [2] addresses Vascular endothelial growth factor receptor 3 (Homo sapiens) (UniProt P35916). The experiment can be described thus: Inhibition of human FLT4 assessed as enzyme activity at 1 uM using poly[Glu:Tyr] (4:1) as substrate preincubated for 20 mins followed by [gamma-33P]-ATP addition and measured after 120 mins by radiometric Hot-SpotSM Kinase assay relative to control.
Experiment [3] addresses Serine/threonine-protein kinase 25 (Homo sapiens) (UniProt O00506). The experiment can be described thus: Inhibition of human STK25 assessed as enzyme activity at 1 uM using myelin basic protein as substrate preincubated for 20 mins followed by [gamma-33P]-ATP addition and measured after 120 mins by radiometric Hot-SpotSM Kinase assay relative to control.
The target of experiment [4] is T2, Serine/threonine-protein kinase ICK (Homo sapiens) (UniProt Q9UPZ9).
T2 sequence (whole entry): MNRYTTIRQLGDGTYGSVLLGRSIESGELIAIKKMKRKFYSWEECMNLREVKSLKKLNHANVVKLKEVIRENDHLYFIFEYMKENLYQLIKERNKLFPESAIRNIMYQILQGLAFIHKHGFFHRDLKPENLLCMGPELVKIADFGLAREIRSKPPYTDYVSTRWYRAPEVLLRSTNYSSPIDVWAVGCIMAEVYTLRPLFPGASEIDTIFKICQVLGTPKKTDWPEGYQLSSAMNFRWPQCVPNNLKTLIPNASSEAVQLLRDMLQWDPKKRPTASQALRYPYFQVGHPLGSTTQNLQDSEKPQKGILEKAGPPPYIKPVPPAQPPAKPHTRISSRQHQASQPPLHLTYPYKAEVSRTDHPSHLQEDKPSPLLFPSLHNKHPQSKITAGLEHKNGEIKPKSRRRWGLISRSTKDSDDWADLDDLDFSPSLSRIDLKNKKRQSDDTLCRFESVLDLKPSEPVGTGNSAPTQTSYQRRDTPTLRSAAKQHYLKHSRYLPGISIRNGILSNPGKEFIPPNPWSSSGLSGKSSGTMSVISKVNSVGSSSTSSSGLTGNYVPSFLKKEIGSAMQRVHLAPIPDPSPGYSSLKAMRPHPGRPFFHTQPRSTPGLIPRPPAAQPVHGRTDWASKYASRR
The experiment can be described thus: Inhibition of human LCK2 assessed as enzyme activity at 1 uM using myelin basic protein as substrate preincubated for 20 mins followed by [gamma-33P]-ATP addition and measured after 120 mins by radiometric Hot-SpotSM Kinase assay relative to control.

Chain of Serine/threonine-protein kinase 25 (Homo sapiens) (O00506 whole entry, looked up): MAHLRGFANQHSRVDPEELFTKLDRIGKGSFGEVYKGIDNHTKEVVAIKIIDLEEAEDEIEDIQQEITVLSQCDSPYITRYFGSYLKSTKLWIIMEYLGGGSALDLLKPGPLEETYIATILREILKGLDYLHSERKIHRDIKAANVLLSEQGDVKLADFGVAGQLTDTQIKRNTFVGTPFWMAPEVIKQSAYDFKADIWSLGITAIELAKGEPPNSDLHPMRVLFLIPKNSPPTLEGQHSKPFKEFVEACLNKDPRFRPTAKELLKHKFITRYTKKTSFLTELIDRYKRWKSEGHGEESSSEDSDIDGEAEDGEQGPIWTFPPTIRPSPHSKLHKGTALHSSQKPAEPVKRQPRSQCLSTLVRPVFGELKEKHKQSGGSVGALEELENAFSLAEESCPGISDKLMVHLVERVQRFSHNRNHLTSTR
Chain of Vascular endothelial growth factor receptor 3 (Homo sapiens) (P35916 whole entry): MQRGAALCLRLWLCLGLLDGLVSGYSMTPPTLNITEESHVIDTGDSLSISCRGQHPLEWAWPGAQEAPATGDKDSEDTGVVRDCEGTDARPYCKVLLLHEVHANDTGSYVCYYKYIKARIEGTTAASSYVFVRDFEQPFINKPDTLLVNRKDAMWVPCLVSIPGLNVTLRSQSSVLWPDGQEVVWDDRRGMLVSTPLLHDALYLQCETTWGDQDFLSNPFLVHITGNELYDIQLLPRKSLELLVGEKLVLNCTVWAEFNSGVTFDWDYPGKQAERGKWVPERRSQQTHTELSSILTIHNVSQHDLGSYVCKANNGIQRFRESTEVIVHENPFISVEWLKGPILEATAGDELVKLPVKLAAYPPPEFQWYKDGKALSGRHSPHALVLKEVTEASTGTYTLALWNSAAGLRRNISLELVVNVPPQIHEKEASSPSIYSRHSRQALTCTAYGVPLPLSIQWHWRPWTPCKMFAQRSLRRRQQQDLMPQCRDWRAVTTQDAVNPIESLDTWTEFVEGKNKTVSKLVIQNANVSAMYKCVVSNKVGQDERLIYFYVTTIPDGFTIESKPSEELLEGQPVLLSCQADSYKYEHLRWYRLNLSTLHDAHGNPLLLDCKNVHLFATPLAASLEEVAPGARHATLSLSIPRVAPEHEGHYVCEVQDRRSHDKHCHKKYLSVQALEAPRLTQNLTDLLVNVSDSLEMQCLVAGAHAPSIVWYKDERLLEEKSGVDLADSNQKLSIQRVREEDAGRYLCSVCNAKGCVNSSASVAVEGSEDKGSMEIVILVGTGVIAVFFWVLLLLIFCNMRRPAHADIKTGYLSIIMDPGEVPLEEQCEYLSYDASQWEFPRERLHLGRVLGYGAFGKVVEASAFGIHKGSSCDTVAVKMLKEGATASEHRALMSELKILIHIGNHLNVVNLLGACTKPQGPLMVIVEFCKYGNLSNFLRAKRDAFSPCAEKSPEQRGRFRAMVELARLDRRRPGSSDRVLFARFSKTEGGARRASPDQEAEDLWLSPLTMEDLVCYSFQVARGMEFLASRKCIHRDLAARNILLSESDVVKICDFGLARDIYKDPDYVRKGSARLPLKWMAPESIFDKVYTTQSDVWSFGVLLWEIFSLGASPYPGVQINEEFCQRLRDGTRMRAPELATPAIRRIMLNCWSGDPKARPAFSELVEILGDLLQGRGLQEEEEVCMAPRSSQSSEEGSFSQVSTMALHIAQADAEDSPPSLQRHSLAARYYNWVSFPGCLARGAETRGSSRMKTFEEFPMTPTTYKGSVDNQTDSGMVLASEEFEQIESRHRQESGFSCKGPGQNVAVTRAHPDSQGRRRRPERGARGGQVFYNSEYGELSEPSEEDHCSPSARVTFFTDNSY

As to `C[C@H](Nc1ncnc2nc[nH]c12)c1cc2cccc(Cl)c2c(=O)n1-c1ccccc1`, the Activity was 97.5% in experiment [1], 101% in experiment [2], 97% in experiment [3] and 91.6% in experiment [4].
As to `CC[C@H](Nc1ncnc2[nH]cnc12)c1nc2cccc(F)c2c(=O)n1-c1ccccc1`, the Activity in experiment [1] turned out to be 96.6%; in experiment [2], 98.8%; in experiment [3], 102%; in experiment [4] it was 100%.
Taken in the same sequence, the figures for `CC(C)Oc1ccc(-c2nn([C@@H](C)c3oc4ccc(F)cc4c(=O)c3-c3cccc(F)c3)c3ncnc(N)c23)cc1F` [UMBRALISIB] were 93.9%, 98.8%, 103% and 101%.

The record behind these values is ChEMBL document CHEMBL5715954, “Silencing c-Myc translation as a therapeutic strategy through targeting PI3Kδ and CK1ε in hematological malignancies” (Blood, 2017).
